Test results from PMC7144325, “Discovery of novel ATAD2 bromodomain inhibitors that trigger apoptosis and autophagy in breast cells by structure-based virtual screening” (Journal of Enzyme Inhibition and Medicinal Chemistry, 2020).
“Also recorded” adds a separate entry of the source. Read-outs that look alike come from different tables or passages of the source.

Columns and labels:
MDA-MB-231 cells [1] = test: Cell viability assay (MTT), MDA-MB-231; type: cell-based; settings: for antiproliferatory inhibition rate in cell viability assay: at 20 µM, MDA-MB-231 cells; for IC50: Homo sapiens, MDA-MB-231, MTT, read-out: IC50 antiproliferative, MDA-MB-231
Method: MDA-MB-231cells were purchased from American Type Culture Collection (ATCC, Manassas, VA, USA). Cells were cultured in DMEM with 10% foetal bovine serum and incubated with 5% CO2. Antibodies used in this study were as follow: ATAD2 (ab176319, abcam), c-Myc (ab32072, abcam), cMyc^Ser62 (ab51156, abcam), Bax(5023, CST), Bcl-2(15071, CST), caspase8(9746, CST), caspase-3 (9665, CST), AKT (4691, CST), mTOR (2983, CST), p-mTOR^Ser2448 (5536,CST), ULK1 (6439, CST), p-ULK1^Ser555 (5869, CST), p62 (5114, CST), Beclin1 (4122, CST), LC3B (3868, CST), β-actin (3700, CST).
(§1) Cells were dispensed in 96-well plates at a density of 5 × 10^4 cells/ml. After 24 h incubation, cells were treated with different concentrations of compounds for the indicated periods. Cell viability was measured by the MTT assay.

ATAD2 bromodomain [2] = target: T1, ATAD2 bromodomain (Homo sapiens, UniProt Q6PL18); test: TR-FRET assay, ATAD2 bromodomain; type: binding
T1 sequence (Q6PL18 980-1092 limits assumed): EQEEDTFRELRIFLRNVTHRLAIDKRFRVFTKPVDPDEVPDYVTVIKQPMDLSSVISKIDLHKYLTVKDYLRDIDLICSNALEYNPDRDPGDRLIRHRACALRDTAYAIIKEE
Method: (§2) The assay was performed by TR-FRET technology using recombinant bromodomain and BET Ligand[27]. The compounds were diluted in 100% DMSO. They were diluted 20 fold in 5% DMSO in Reaction Buffer and 2 µl of the dilution was added to a 20 µl reaction. The reaction mixture incubated for 180 min prior to reading the TR-FRET signal. TR-FRET was recorded as the ratio of the fluorescence of the acceptor and the donor dyes (acceptor/donor). Binding experiments were performed in duplicate at each concentration. The TR-FRET data were analysed using the computer software, Graphpad Prism.

[3] = test system: ATAD2, c-Myc, p-cMyc in MDA-MB-231 cells; test: Western blot of ATAD2, c-Myc and p-cMyc; type: cell-based; settings: MDA-MB-231, 1.25, 2.5 and 5.0 µM, 24 h
Method: (§3) Adherent and floating cells were collected after treatment with AM879 for indicated times. Cells were lysed in a lysis buffer consisting of Hepes 50 mM pH 7.4, Triton-X-100 1%, sodium orthovanada 2 mM, sodium fluoride 100 mM, edetic acid 1 mM, PMSF 1 mM, aprotinin (Sigma, MO, USA) 10 mg/L and leupeptin (Sigma) 10 mg/L at 4 °C for 1 h. After 12,000 rpm centrifugation for 15 min, the protein content of supernatant was determined by the Bio-Rad DC protein assay (Bio-Rad Laboratories, Hercules, CA, USA). Equal amounts of the total protein were separated by 10–15% SDS-PAGE and transferred to PVDF membranes, and the membranes were soaked in blocking buffer (5% skimmed milk or BSA). Proteins were detected using primary antibodies, followed by HRP-conjugated secondary antibody and visualised by using ECL as the HRP substrate. Quantity One 4.4 was used to quantify.

MDA-MB-231 cells [4] = test: Apoptosis assay, flow cytometry of Annexin-V/PI double staining; type: cell-based; settings: MDA-MB-231, 1.25, 2.5 and 5 μM, 24 h
[5] = test system: Bax, Bcl-2, Caspase8, Caspase3 in MDA-MB-231 cells; test: Western blot of Bax, Bcl-2, Caspase8 and Caspase3; type: cell-based; settings: MDA-MB-231, 1.25, 2.5 and 5 μM, 24 h
Method: as §3

BRD4(2) = target: T2, BRD4(2) (Homo sapiens, UniProt O60885); test: TR-FRET assay, BRD4(2); type: binding
T2 construct: against the first and second bromodomains of BRD2, BRD3 and BRD4
Method: as §2

BRD2(1) = target: T3, BRD2(1) (Homo sapiens, UniProt P25440); test: TR-FRET assay, BRD2(1); type: binding
T3 construct: against the first and second bromodomains of BRD2, BRD3 and BRD4
Method: as §2

BRD2(2) = target: T4, BRD2(2) (Homo sapiens, UniProt P25440); test: TR-FRET assay, BRD2(2); type: binding
T4 construct: against the first and second bromodomains of BRD2, BRD3 and BRD4
Method: as §2

MDA-MB-231 cells [6] = test: Autophagy assay, GFP/mRFP-LC3 puncta; type: cell-based; settings: MDA-MB-231, GFP-mRFP-LC3, 24 h
BRD3(1) = target: T5, BRD3(1) (Homo sapiens, UniProt Q15059); test: TR-FRET assay, BRD3(1); type: binding
T5 construct: against the first and second bromodomains of BRD2, BRD3 and BRD4
Method: as §2

BRD3(2) = target: T6, BRD3(2) (Homo sapiens, UniProt Q15059); test: TR-FRET assay, BRD3(2); type: binding
T6 construct: against the first and second bromodomains of BRD2, BRD3 and BRD4
Method: as §2

[7] = test system: MDA-MB-231, MDA-MB-436, MDA-MB-468, BT474 and MCF-7 cells; test: Anti-proliferation activity on breast cancer cell panel (MTT); type: cell-based; settings: MDA-MB-231, MDA-MB-436, MDA-MB-468, BT474 and MCF-7 cells (Figure S1)
Method: as §1

MDA-MB-231 cells [8] = test: TUNEL apoptosis assay; type: cell-based; settings: MDA-MB-231, 2.5 μM, 24 h
Method: TUNEL staining was also used to detect cell apoptosis. Cells were treated with DMSO or AM879 and then formalin-fixed.

[9] = test system: PI3K-AKT-mTOR signalling in MDA-MB-231 cells; test: Western blot of PI3K-AKT-mTOR signalling; type: cell-based; settings: MDA-MB-231, 1.25, 2.5, 5 µM, 24 h
Method: as §3

BRD4(1) = target: T7, BRD4(1) (Homo sapiens, UniProt O60885); test: TR-FRET assay, BRD4(1); type: binding
T7 construct: against the first and second bromodomains of BRD2, BRD3 and BRD4
Method: as §2

[10] = test system: ULK1, p-ULK1, Beclin 1, p62, LC3 in MDA-MB-231 cells; test: Western blot of ULK1, p-ULK1, Beclin 1, SQSTM1/p62 and LC3; type: cell-based; settings: MDA-MB-231, 1.25, 2.5, 5 µM, 24 h
Method: as §3

BRD2-4 = test: TR-FRET selectivity, statement for BRD2, BRD3 and BRD4 together; type: binding; settings: first and second bromodomains
Method: as §2

[11] = design: method as in PMID 29043777, PMID 30226378, PMID 31398032; settings: in vitro or vivo cellular assays; cited from earlier work
[12] = design: method as in PMID 27530368; settings: in vivo as printed; cited from earlier work
ATAD2 bromodomain [13] = target: T1, ATAD2 bromodomain; settings: cited from earlier work
BET = test system: BET; design: method as in PMID 26230603; settings: ATAD2 over BET; cited from earlier work

T5 sequence (Q15059 34-140 limits assumed): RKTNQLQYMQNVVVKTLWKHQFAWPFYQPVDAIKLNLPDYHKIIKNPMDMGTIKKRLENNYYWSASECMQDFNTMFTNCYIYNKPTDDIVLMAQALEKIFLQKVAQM
T6 sequence (Q15059 306-415 limits assumed): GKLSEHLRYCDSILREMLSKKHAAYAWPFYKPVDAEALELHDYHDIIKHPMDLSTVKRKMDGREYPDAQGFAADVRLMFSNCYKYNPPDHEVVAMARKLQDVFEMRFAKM
T3 sequence (P25440 74-180 limits assumed): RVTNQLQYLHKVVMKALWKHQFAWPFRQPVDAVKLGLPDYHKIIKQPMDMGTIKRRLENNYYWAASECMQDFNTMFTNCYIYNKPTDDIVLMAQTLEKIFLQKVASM
T4 sequence (P25440 344-453 limits assumed): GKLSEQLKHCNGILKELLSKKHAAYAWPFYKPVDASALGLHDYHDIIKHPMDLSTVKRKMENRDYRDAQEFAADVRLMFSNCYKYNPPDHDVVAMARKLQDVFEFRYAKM

Compound: CCn1c(SCC(C)=O)nc2c1c(=O)[nH]c(=O)n2C [AG-690]
- antiproliferatory inhibition rate in cell viability assay (MDA-MB-231 cells [1]): less potency than AM879
- inhibition at 20 µM (ATAD2 bromodomain [2]; at 20 µM, read-out: ATAD2 enzyme inhibition rate): 79%

Compound: CC1=C(C#N)c2nc(N)c(C#N)c(C)c2/C1=C\c1ccc(-c2cc(C(=O)O)ccc2Cl)o1 [AM879]
- expression of ATAD2, c-Myc and p-cMyc [3]: suppressed the expression of c-Myc; also recorded: inhibited the expression of ATAD2, c-Myc and the phosphorylation of c-Myc
- apoptotic cells by Annexin-V/PI staining (MDA-MB-231 cells [4]): significant increase in early and late apoptotic cells
- expression of Bax, Bcl-2, Caspase8 and Caspase3 [5]: elevated the expression of Bax, reduced the expression of Bcl-2, accompanied with the cleavage of caspase3 and caspase8
- IC50 (MDA-MB-231 cells [1]; 24 h): 2.43 µM
- IC50 (MDA-MB-231 cells [1]; 48 h): 2.06 µM
- IC50 (MDA-MB-231 cells [1]; 72 h): 1.05 µM
- antiproliferatory inhibition rate in cell viability assay (MDA-MB-231 cells [1]): 90%
- IC50 (BRD4(2)): > 50 µM
- IC50 (BRD2(1)): > 50 µM
- IC50 (BRD2(2)): > 50 µM
- autophagy induction (LC3 puncta) (MDA-MB-231 cells [6]): obvious aggregation of LC3 puncta
- autophagy induction (LC3 puncta) (MDA-MB-231 cells [6]; listed as AM978): induce autophagy
- IC50 (ATAD2 bromodomain [2]; Table 3, read-out: IC50 ATAD2): 3.56 µM
- IC50 (BRD3(1)): > 50 µM
- IC50 (BRD3(2)): > 50 µM
- anti-proliferation activity on breast cancer cells [7]: potent antiproliferatory activity
- apoptosis by TUNEL assay (MDA-MB-231 cells [8]): obvious FITC fluorescence were aggregated in the nucleus
- PI3K-AKT-mTOR signalling protein expression [9]: obviously downregulated expression of PI3K, AKT, mTOR and mTOR^Ser2448
- IC50 (BRD4(1)): > 50 µM
- expression of ULK1, p-ULK1, Beclin 1, SQSTM1/p62 and LC3-II [10]: elevation of ULK1, p-ULK1, Beclin 1 and LC3-II in a dose-dependent manner, as well as degradation of SQSTM1/p62
- inhibitory activity against BRD2-4 (BRD2-4): no inhibitory activity
- inhibitory activity against BRD2-4 (BRD2-4; listed as AM-879): no activity

Compound: COc1cc(Cl)c(C(=O)N[C@@H](CN[C@H]2CC[C@@H](N)CC2)Cc2ccc(C#N)cc2)cc1-c1ccc(CN[C@H](C)c2ccc(C)cc2)o1 [BAY-850, reference compound]
- IC50 (ATAD2 bromodomain [2]; read-out: IC50 against ATAD2 bromodomain): 0.242 µM
- activity in cellular assays [11]: lack activity

Compound: CO[C@H]1CNC[C@@H](OCC2CCC(F)(F)CC2)[C@@H]1Nc1ncc(-c2cncc(C)c2)c2cc(C)c(=O)[nH]c12 [GSK8814]
- antiproliferative activity [12]: weak antiproliferative

Compound: CC1(C2CC2)NC(=O)N(CC(=O)Nc2ccc(Br)c(S(=O)(=O)N3CCCCC3)c2)C1=O (stereo not shown) [compound 23]
- activity in cellular assays [11]: lack activity

Compound: Cc1ccc(-c2cnc(NC3CC4CCC(N4)C3CCC3CCC(F)(F)CC3)c3[nH]c(=O)c(C)cc23)cn1 (stereo not shown) [compound 26]
- activity in cellular assays [11]: lack activity

Compound: Cc1cncc(-c2cnc(N[C@@H]3CCNC[C@H]3OCC3CCS(=O)(=O)CC3)c3[nH]c(=O)c(C)cc23)c1 [compound 38]
- ATAD2 potency (ATAD2 bromodomain [13]): 0.1 µM
- BET selectivity (BET): 100 fold
